Reference: patent US20230257377A1, “2-AMINOQUINAZOLINONE DERIVATIVES AS METHIONINE ADENOSYLTRANSFERASE 2A INHIBITORS” (IDEAYA BIOSCIENCES, INC., priority 2020, published 2023)

Each compound was assayed against T1, Human MAT2A (Homo sapiens, UniProt P31153) (assay: Phosphate Sensor Fluorescence Assay (Biologic Example A)). Settings: MAT2A inhibition, procedure of Biological Example A; 500 uM L-methionine, 500 uM ATP, 0.1% BGG.
T1 construct: Human MAT2A: Cepter, amino acids 1-395 Clone ID 334, lot 00023-148; purchased Cepter clone ID 334, lot 00023-148
T1 sequence (P31153 whole entry, the tested form may be a part): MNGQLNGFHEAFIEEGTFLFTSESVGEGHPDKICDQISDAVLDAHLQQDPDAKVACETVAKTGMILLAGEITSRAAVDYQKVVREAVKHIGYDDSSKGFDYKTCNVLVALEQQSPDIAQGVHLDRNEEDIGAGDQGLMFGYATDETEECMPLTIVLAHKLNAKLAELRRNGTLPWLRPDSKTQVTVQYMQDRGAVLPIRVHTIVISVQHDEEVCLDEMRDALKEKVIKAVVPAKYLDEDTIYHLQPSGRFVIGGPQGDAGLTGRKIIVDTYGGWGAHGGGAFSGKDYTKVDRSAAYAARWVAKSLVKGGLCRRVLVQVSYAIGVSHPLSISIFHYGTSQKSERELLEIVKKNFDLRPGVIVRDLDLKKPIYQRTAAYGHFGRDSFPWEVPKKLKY
Assay type: biochemical
Procedure: (§1) The ability of the compound of present disclosure to inhibit MAT2A enzyme was determined using a Phosphate Sensor Fluorescence Assay described below.
(§2) MAT2A enzyme is incubated with a test compound in DMSO or DMSO and its substrates (L-methionine and ATP) in a microtiter plate. The enzymatic reaction is stopped by the addition of Working Phosphate Sensor Mixture. The plate is analyzed for fluorescence at 450 nm. The high control (DMSO with enzyme and its substrates) gives high fluorescence which represents no inhibition of enzymatic activity while the low control (DMSO with MAT2A substrates and no enzyme) gives low fluorescence which represents full inhibition of enzymatic activity.
Human MAT2A: Cepter, amino acids 1-395
Assay Buffer: 50 mM Tris, pH 7.5/50 mM KCl/10 mM MgCl2/0.01% Brij-35/1 mM DTT/0.1% BGG/40 nM PNP/6 uM 7-MEG
MAT2A: 10 nM for Cepter clone ID 329, lot 00023-123 before the addition of Working Phosphate Sensor Mixture • 5 nM for Cepter clone ID 334, lot 00023-148 before the addition of Working Phosphate Sensor Mixture
(§3) L-methionine: 500 uM before the addition of Working Phosphate Sensor Mixture
(§4) ATP: 500 uM before the addition of Working Phosphate Sensor Mixture
(§5) For the assay, a mixture of 1 mM L-methionine/1 mM ATP (2× final pre-stopped concentration) in assay buffer; MAT2A (2× final pre-stopped concentration) in Assay Buffer and Working Phosphate Sensor Mixture (1.5 uM Phosphate Sensor/30 mM EDTA in Assay Buffer, which is 3× final concentrations) were prepared. Test compounds or DMSO were added to the appropriate well suing D300e digital dispenser. 5 μl/well of Assay Buffer was added to the wells corresponding to the negative control and 5 μl/well of MAT2A was added to all the wells except for those corresponding to the negative control. After incubating the plate at room temperature for 15 minutes, 5 μl/well of the 1 mM L-methionine/1 mM ATP mixture was added to all wells. The plate was centrifuged at 1000 rpm for 1 minute and then incubated at room temperature for 1 hour. 5 μl of the Working Phosphate Sensor Mixture was added to all wells and the plate was centrifuged at 1000 rpm for 1 minute. The plate was read for fluorescence at 450 nm after exciting at 430 nm.
(§6) Percent inhibition was calculated in Chemical and Biological Information System (CBIS), (ChemInnovation Software Inc.). Curves were fitted by CBIS as % inhibition vs. log [compound concentration] using a 4-parameter inhibition model.
(§7) Fit=(A+((B−A)/(1+((C/x)^D))))
In the case of `Nc1nc(=O)c(-c2ccccc2)c2cc(C(F)(F)F)ccn12` [Compound 1.001, 1-amino-4-phenyl-6-(trifluoromethyl)-3H-pyrido[1,2-c]pyrimidin-3-one], the IC50 is reported as 10 to 200 nM. For `Cc1ccccc1-c1c(=O)nc(N)n2ccc(C(F)(F)F)cc12` [Compound 1.002, 1-amino-4-(o-tolyl)-6-(trifluoromethyl)-3H-pyrido[1,2-c]pyrimidin-3-one], the IC50 was 10 to 200 nM. `Nc1nc(=O)c(-c2ccccc2Cl)c2cc(C(F)(F)F)ccn12` [Compound 1.003, 1-amino-4-(2-chlorophenyl)-6-(trifluoromethyl)-3H-pyrido[1,2-c]pyrimidin-3-one] was tested, and the IC50 was 10 to 200 nM. `COc1cc(C(F)(F)F)cc2c(-c3ccccc3C)c(=O)nc(N)n12` [Compound 1.004, 1-amino-8-methoxy-4-(o-tolyl)-6-(trifluoromethyl)-3H-pyrido[1,2-c]pyrimidin-3-one] showed an IC50 of 200 to 500 nM.

These compounds were tested against T1, Human MAT2A (assay: Phosphate Sensor Fluorescence Assay (Biologic Example B)). Settings: MAT2A inhibition, procedure of Biological Example B; 5.8 nM MAT2A, 500 uM L-methionine, 500 uM ATP, 0.01% BGG.
Assay type: biochemical
Procedure: as §1, §2
MAT2A: 5.8 nM MAT2A (1-395), Cepter, clone ID 334, lot 00023-148 before the addition of Working Phosphate Sensor Mixture
as §3, §4
as §5, with “(2X” for “(2×”, “3X” for “3×”, “using a Beckman Coulter Echo 550 acoustic liquid handler. 10 μL/well” for “suing D300e digital dispenser. 5 μl/well”, “10 μL/well” for “5 μl/well”, “10 μL” for “5 μl”, “nm on a Tecan Spark microplate reader.” for “nm.”
as §6, §7
With `Nc1nc(=O)c(-c2cccnc2)c2cc(C(F)(F)F)ccn12` [Compound 1.005, 1-Amino-4-(pyridin-3-yl)-6-(trifluoromethyl)-3H-pyrido[1,2-c]pyrimidin-3-one] the IC50 was 10 to 200 nM. In the case of `Cn1nccc1-c1c(=O)nc(N)n2ccc(C(F)(F)F)cc12` [Compound 1.006, 1-Amino-4-(1-methyl-TH-pyrazol-5-yl)-6-(trifluoromethyl)-3H-pyrido[1,2-c]pyrimidin-3-one], the IC50 is reported as 10 to 200 nM. `Nc1nc(=O)c(-c2ccccc2)c2cc(Br)ccn12` [Compound 1.007, 1-Amino-6-bromo-4-phenyl-3H-pyrido[1,2-c]pyrimidin-3-one] was tested, and the IC50 was 10 to 200 nM. `Cc1ccccc1-c1c(=O)nc(N)n2ccc(Br)cc12` [Compound 1.008, 1-Amino-6-bromo-4-(o-tolyl)-3H-pyrido[1,2-c]pyrimidin-3-one] gave an IC50 of 10 to 200 nM. `CC(=O)Nc1nc(=O)c(-c2ccccc2)c2cc(C(F)(F)F)ccn12` [Compound 1.009, N-(3-oxo-4-phenyl-6-(trifluoromethyl)-3H-pyrido[1,2-c]pyrimidin-1-yl)acetamide] gave an IC50 of 1000 to 10000 nM. Compound `CCCNc1nc(=O)c(-c2ccccc2)c2cc(C(F)(F)F)ccn12` [Compound 1.010, 4-Phenyl-1-(propylamino)-6-(trifluoromethyl)-3H-pyrido[1,2-c]pyrimidin-3-one] has an IC50 of 10 to 200 nM. `CNc1nc(=O)c(-c2ccccc2)c2cc(C(F)(F)F)ccn12` [Compound 1.011, 1-(Methylamino)-4-phenyl-6-(trifluoromethyl)-3H-pyrido[1,2-c]pyrimidin-3-one] showed an IC50 of 10 to 200 nM.
